From patent publication EP0029617A1, “Use of tertiary heterocyclic amines as synergists in pesticides; derivatives of cycloamines” (priority 1979, dated 1981) come the findings set out here.

The subject of this data set is Kornkäfer (sitophilus granarius L). Put plainly: whole plant or invertebrate. The class given is in vivo. As to conditions: for Wirksamkeit in % Substanz allein: amine 1 mg/ml in Aceton mixed 1 : 1 with Aceton, 2 ml per dish, 25 weevils, dead counted after 3 h; for Wirksamkeit in % Substanz +Ripcord: amine 1 mg/ml mixed 1 : 1 with Ripcord 0,01 mg/ml; for Wirksamkeit in % Substanz +Ripcord / Wirksamkeit in % Substanz +Talcord: 3 h; for Wirksamkeit in % Substanz +Talcord: amine 1 mg/ml mixed 1 : 1 with Talcord 0,01 mg/ml. As for the experimental part: Test von tertiären, heterocyclischen Aminen allein und im Gemisch mit Pyrethroiden an Kornkäfern (sitophilus granarius L)
In Petrischalen mit 15 cm Durchmesser mit talcumbepuderten Seitenwänden, um das Entfliehen der Kornkäfer zu verhindern, wurden jeweils 2 ml der Acetonlösungen einpipettiert und durch vorsichtiges Schwenken der Schalen gleichmäßig auf dem Boden verteilt. Nach dem Abdampfen des Acetons und dem Antrocknen der Beläge wurden in jede Schale 25 Kornkäfer eingezählt. Nach einer Stunde wurde jeweils ein 12,5 cm Rundfilter in die Schalen eingelegt, um den Käfern das Befreien aus der Rückenlage zu ermöglichen, was auf der glatten Glasplatte nicht möglich ist. Die lichtscheuen Käfer verkrochen sich mit Vorliebe unter die Filter und blieben so ständig mit den Wirkstoffbelägen in Kontakt. Alle Versuche liefen mit 3 Wiederholungen. Nach 3 h wurden die toten Käfer ausgezählt.
In der Tabelle 3 ist jeweils der Durchschnitt der Summe der 4 Einzelwerte angegeben. 25 tote Kornkäfer entsprechen dabei einer Wirkung von 100 %. Die Temperaturen betrugen während der Tests im Durchschnitt 19 - 21°C. Der synergistische Faktor berechnet sich analog wie in Beispiel 1 angegeben.
Die zu prüfenden tertiären, heterocyclischen Amine wurden - mit 1 mg Wirkstoff pro ml als Acetonlösungen angesetzt. Sie wurden im Verhältnis 1 : 1 mit Ripcord bzw. Talcord, die mit 0,01 mg Wirkstoff pro ml als Acetonlösung vorlagen, gemischt. Die Einzelkomponenten wurden im Verhältnis 1 : 1 mit Aceton gemischt.
Auch bei diesen Versuchen zeigten die Kontrollversuche stets bei Versuchsende eine Mortalität der Kornkäfer von 0 %.
Die synergistische Wirkung der tertiären, heterocyclischen Amine auf die Pyrethroide ist auch dann noch deutlich, wenn das Amin in wesentlich niederen Aufwandmengen eingesetzt wird, als dies in Beispiel 3 beschrieben wurde. Die Ergebnisse sind in der Tabelle 4 zusammengestellt. Dieser Versuch zeigt auch, daß Amine mit insektiziden Eigenschaften, wenn sie in Konzentrationen unterhalb ihres insektiziden Wirkungsbereiches eingesetzt werden, immer noch gute synergistische Wirkungen im Gemisch mit Pyrethroiden zeigen. Die Versuche wurden wie im Beispiel 3 beschrieben mit Kornkäfern durchgeführt. Es wurden lediglich die Konzentrationen der eingesetzten tertiären, heterocyclischen Amine geändert. Für die Verdünnung Pyrethroid : Amin = 1 : 10 wurde das Amin mit 0,1 mg Wirkstoff/ml Acetonlösung eingesetzt. Für die Verdünnung 1 : 5 mit 0,05 mg Wirkstoff/ml.

The mark [1] stands for this setting: amine 1 mg/ml + Ripcord 0,01 mg/ml.
The mark [2] stands for this setting: amine 1 mg/ml + Talcord 0,01 mg/ml.

For 1-N-p-Menthen-piperidin, the “Wirksamkeit in % Substanz allein” value is listed as 0%, the “Wirksamkeit in % Substanz +Ripcord” value is 60,0% and the “Wirksamkeit in % Substanz +Talcord” value is recorded as 72,0%. For the same compound, under setting [1], the “Synergistischer Faktor bei Ripcord” value was 1,90. Besides, the “Synergistischer Faktor bei Talcord” value under setting [2] is given as 7,42.
Turning to `C1CCN(CCOCCOCCN2CCCC2)C1` [1,2-Bis-(2-N-pyrrolidino-ethoxi)-ethan], the “Wirksamkeit in % Substanz allein” value was 0%, the “Wirksamkeit in % Substanz +Ripcord” value was 100,0% and the “Wirksamkeit in % Substanz +Talcord” value is given as 69,2%. Besides, the “Synergistischer Faktor bei Ripcord” value under setting [1] was 3,17. Further, the “Synergistischer Faktor bei Talcord” value under setting [2] was 7,13.
For `C(CCCN1CCCCC1)CCN1CCCCC1` [1,6-N,N-Di-piperidino-hexan], the “Wirksamkeit in % Substanz allein” value is recorded as 0%, the “Wirksamkeit in % Substanz +Ripcord” value is 57,2% and the “Wirksamkeit in % Substanz +Talcord” value was 2,8%. The “Synergistischer Faktor bei Ripcord” value under setting [1] is listed as 2,82.
Turning to `C(CCCN1CCCC1)CCN1CCCC1` [1,6-N,N-Di-pyrrolidino-hexan], the “Wirksamkeit in % Substanz allein” value amounted to 0%, the “Wirksamkeit in % Substanz +Ripcord” value is 77,2% and the “Wirksamkeit in % Substanz +Talcord” value is listed as 41,2%. Further, under setting [1], the “Synergistischer Faktor bei Ripcord” value is 2,52. In addition, under setting [2], the “Synergistischer Faktor bei Talcord” value was 4,24.
Consider `C(CCCCN1CCCCC1)CCCN1CCCCC1` [1,8-N,N-Di-piperidino-octan], for which the “Wirksamkeit in % Substanz allein” value is given as 61,2%, the “Wirksamkeit in % Substanz +Ripcord” value is 90,8% and the “Wirksamkeit in % Substanz +Talcord” value was 65,2%.
As for `C(CCCCN1CCCC1)CCCN1CCCC1` [1,8-N,N-Di-pyrrolidino-octan], the “Wirksamkeit in % Substanz allein” value was determined as 0%, the “Wirksamkeit in % Substanz +Ripcord” value is recorded as 88,0% and the “Wirksamkeit in % Substanz +Talcord” value is on record as 64,0%. For the same compound, the “Synergistischer Faktor bei Ripcord” value under setting [1] was 2,79. The “Synergistischer Faktor bei Talcord” value under setting [2] was 6,60.
Consider `C(CCCCCN1CCCCC1)CCCCN1CCCCC1` [1,10-N,N-Di-piperidino-decan], for which the “Wirksamkeit in % Substanz allein” value is listed as 0%, the “Wirksamkeit in % Substanz +Ripcord” value is given as 76,0% and the “Wirksamkeit in % Substanz +Talcord” value was 58,8%. Besides, the “Synergistischer Faktor bei Ripcord” value under setting [1] is 2,41. For the same compound, the “Synergistischer Faktor bei Talcord” value under setting [2] is listed as 6,06.
In the same order, the values of `C(CCCCCN1CCCC1)CCCCN1CCCC1` [1,10-N,N-Di-pyrrolidino-decan] are 0%, 80,0%, 29,2%, 2,54 and 3,00.
The matching figures for `OC(CCl)CN1CCCCC1` (stereo not drawn) [1-N-Piperidino-2-hydroxi-3-chlor-propan]: 0%, 54,8%, 54,8%, 1,74 and 5,65.
In the same order, the values of `OCCC(O)N1CCCC1` (stereo not drawn) [1-N-Pyrrolidino-propandiol-(1,3)] are 0%, 100,0%, 78,8%, 3,17 and 8,12.
Consider `Oc1cc(CN2CCCCC2)c(O)cc1CN1CCCCC1` [2,5-Bis-(N-piperidino-methyl)-hydrochinon], for which the “Wirksamkeit in % Substanz allein” value was found to be 0%, the “Wirksamkeit in % Substanz +Ripcord” value is reported as 56,0% and the “Wirksamkeit in % Substanz +Talcord” value is listed as 24,0%. Under setting [1], the “Synergistischer Faktor bei Ripcord” value was 1,78. Also, the “Synergistischer Faktor bei Talcord” value under setting [2] is 2,47.
With `CCOC(=O)C(CC)N1CCOCC1` (stereo not drawn) [2-N-Morpholino-buttersäure-ethylester], the “Wirksamkeit in % Substanz allein” value is given as 0%, the “Wirksamkeit in % Substanz +Ripcord” value is listed as 49,2% and the “Wirksamkeit in % Substanz +Talcord” value is recorded as 32,0%. The “Synergistischer Faktor bei Ripcord” value under setting [1] is 1,56. Moreover, the “Synergistischer Faktor bei Talcord” value under setting [2] is 3,30.
In the same order, the values of `CCOC(=O)C(CC)N1CCCCC1` (stereo not drawn) [2-N-Piperidino-buttersäure-ethylester] are 0%, 61,2%, 52,0%, 1,94 and 5,36.
With `CCCCOC(CN1CCCCC1)OCCCC` [2-N-Piperidino-ethyl-dibutyl-acetal], the “Wirksamkeit in % Substanz allein” value worked out at 0%, the “Wirksamkeit in % Substanz +Ripcord” value is 86,8% and the “Wirksamkeit in % Substanz +Talcord” value is recorded as 36,0%. Besides, for the setting “in vivo”, the “Synergistischer Faktor bei Ripcord” value is reported as 2,76 and the “Synergistischer Faktor bei Talcord” value was 3,71.
`O=C1CCCCC1CN1CCCCC1` (stereo not drawn) [2-N-Piperidino-methyl-cyclo-hexanon]: the “Wirksamkeit in % Substanz allein” value was 18,8%, the “Wirksamkeit in % Substanz +Ripcord” value is recorded as 70,8% and the “Wirksamkeit in % Substanz +Talcord” value was 34,8%. For the same compound, the “Synergistischer Faktor bei Ripcord” value under setting [1] is 1,65. Under setting [2], the “Synergistischer Faktor bei Talcord” value was 1,65.
Regarding `c1ccc2cc(CN3CCCCC3)ccc2c1` [2-N-Piperidino-methyl-naphthalin], the “Wirksamkeit in % Substanz allein” value is listed as 0%, the “Wirksamkeit in % Substanz +Ripcord” value is on record as 96,0% and the “Wirksamkeit in % Substanz +Talcord” value was 88,0%. Moreover, under setting [1], the “Synergistischer Faktor bei Ripcord” value is listed as 3,05. Moreover, the “Synergistischer Faktor bei Talcord” value under setting [2] was 9,07.
The matching figures for `OCCN1CCCC1` [2-N-Pyrrolidino-ethanol]: 0%, 81,2%, 53,2%, 2,58 and 5,48.
In the case of `COc1cc(C=O)cc(CN2CCCCC2)c1O` [3-N-(Piperidino-methyl)-4-hydroxid-5-methoxi-benz-aldehyd], the “Wirksamkeit in % Substanz allein” value is reported as 0%, the “Wirksamkeit in % Substanz +Ripcord” value is recorded as 88,0% and the “Wirksamkeit in % Substanz +Talcord” value was 40,0%. Moreover, the “Synergistischer Faktor bei Ripcord” value under setting [1] is reported as 2,79. Further, the “Synergistischer Faktor bei Talcord” value under setting [2] is reported as 4,12.
The matching figures for `C=CC(C)(CCC=C(C)CCC=C(C)C)N1CCCC1` (stereo not drawn) [3-N-pyrrolidino-3,7,11-tri-methyl-1,6,10-dodecatrien]: 0%, 94,8%, 34,8%, 3,00 and 3,59.
The matching figures for `C#CCN1CCCC1` [3-N-pyrrolidino-propin]: 0%, 50,8%, 14,8%, 1,61 and 1,52.
The matching figures for `C=CC(C)(CCC=C(C)C)N1CCCCCC1` (stereo not drawn) [6-N-Hexamethylenimino-2,6-dimethyl-octadien-(2,7)]: 0%, 76,0%, 70,8%, 2,41 and 7,30.
